By IC50 is commonly meant the concentration that inhibits the measured activity by half. Broadly, the Ki is a dissociation constant, usually derived from enzyme kinetics or from competition with a known ligand.

“And” between values parts separate entries of the source, which are not always exact repeats. Equal values may be shown once. Read-outs that look alike come from different tables or passages of the source.

In assay [1] the target is T1, human recombinant BACE1 (Homo sapiens, UniProt P56817).
T1 construct: purchased PanVera Co. (Madison, WI, USA)
Nature of the assay: In vitro BACE1 FRET enzyme assay. The class given is biochemical. Here is the method: A BACE1 fluorescence resonance energy transfer (FRET) assay kit (β-secretase, human recombinant) was purchased from PanVera Co. (Madison, WI, USA). The assay was carried out according to the provided manual with slight modifications, as described in a previous study.

The target in assay [2] is T1, human recombinant BACE1. The assay is described as follows: Kinetics of BACE1 inhibition (Lineweaver–Burk and Dixon plots). The class given is biochemical. As to conditions: for BACE1 inhibition type: determined using Dixon and Lineweaver–Burk plots; for Ki: determined using a Dixon plot, substrate 750, 375, 250 nM, read-out: BACE1 inhibition constant (Ki). Here is the method: Complementary kinetic methods were employed: Lineweaver–Burk and Dixon plots. The mechanism of BACE1 inhibition was evaluated by monitoring the effects of different concentrations of substrate (750, 375, and 250 nM). The test concentrations of 2 in BACE1 inhibition kinetic experiments were 0, 0.4, 2.0, and 10 µM, while those for 3 were 0, 25, 50, and 100 µM. Inhibition constants (Ki) were determined by interpreting the Dixon plot, where the value on the x-axis represents Ki.

For assay [3], the target named is T2, horse serum butyrylcholinesterase (BChE) (Equus caballus, UniProt P81908).
T2 construct: horse serum butyrylcholinesterase (BChE, EC 3.1.1.8); purchased Sigma-Aldrich Co. (St. Louis, MO, USA); host or cells: horse serum
The assay is described as follows: In vitro ChE enzyme assay (Ellman), BChE. It is filed as biochemical. To be noted: mean ± SEM of triplicate experiments. From the text: (§1) Electric eel acetylcholinesterase (AChE, EC3.1.1.7), horse serum butyrylcholinesterase (BChE, EC 3.1.1.8), acetylthiocholine iodide (ACh), butyrylthioline chloride (BCh), 5,5′-dithobis [2-nitrobenzoic acid] […] The BACE1 FREF assay kit (β-secretase) was purchased from Pan Vera Co. (Madison, WI, USA). ONOO^− was purchased from Molecular Probes Cayman (Ann Arbor, MI, USA). All other chemicals and solvents used were purchased from E. Merck, Fluka, or Sigma- Aldrich, unless otherwise stated.
The inhibitory activity of the isolated coumarins toward ChE was measured using the spectrophotometric method developed by Ellman et al.. ACh and BCh were used as substrates to assay the inhibition of AChE and BChE, respectively. Each reaction mixture consisted of 140 µL sodium phosphate buffer (pH 8.0), 20 µL of test sample solution, and 20 µL of either AChE or BChE solution, which were then combined and incubated for 15 min at room temperature. […] Enzymatic hydrolysis, mediated by AChE or BChE, was monitored according to the formation of yellow 5-thio-2-nitrobenzoate anions at 412 nm for 15 min, which were generated by the reaction of DTNB with thiocholine released from ACh or BCh. All reactions were performed in 96-well plates in triplicate, and recorded using a microplate spectrophotometer (Molecular Devices, Sunnyvale, CA, USA).
(In general: DTNB colorimetry detects thiols as they appear.)

Assay [4] concerns ONOO−-mediated tyrosine nitration of BSA. The assay is described as follows: Inhibition of ONOO−-mediated protein tyrosine nitration (Western blot, 3-nitrotyrosine antibody). The class given is biochemical. As to conditions: pretreatment at 12.5–100 μM. Here is the method: To determine the inhibitory effect of 2 against ONOO^−-induced tyrosine nitration, Western blot analysis was performed using a 3-nitrotyrosine antibody.
Figure 5 Effect of 2 on nitration of BSA by ONOO^−. A mixture of the compound and BSA was incubated at 25 °C for 10 min. After incubation of ONOO^− at 25 °C for 10 min, reactants were resolved by electrophoresis in a 10% SDS-polyacrylamide gel.
We evaluated ONOO^−-mediated protein tyrosine nitration using the method of Ali et al., with slight modifications. The tested concentration range of 2 was 12.5–100 µM.
(Immunoblotting shows a protein as a band on a membrane.)

Assay [5] deals with T3, Electric eel acetylcholinesterase (AChE) (Electrophorus electricus, UniProt O42275).
T3 construct: purchased Sigma-Aldrich Co. (St. Louis, MO, USA)
The assay is described as follows: biochemical. As to conditions: for SI, selective index (BChE/AChE): calculated from IC50 of BChE/AChE; for IC50: electric eel AChE, mean ± SEM of triplicate experiments.
Description: as §1
The inhibitory activity of the isolated coumarins toward ChE was measured using the spectrophotometric method developed by Ellman et al.. ACh and BCh were used as substrates to assay the inhibition of AChE and BChE, respectively. Each reaction mixture consisted of 140 µL sodium phosphate buffer (pH 8.0), 20 µL of test sample solution, and 20 µL of either AChE or BChE solution, which were then combined and incubated for 15 min at room temperature. […] Reactions were initiated upon addition of 10 µL of DTNB and 10 µL of either ACh or BCh. Enzymatic hydrolysis, mediated by AChE or BChE, was monitored according to the formation of yellow 5-thio-2-nitrobenzoate anions at 412 nm for 15 min, which were generated by the reaction of DTNB with thiocholine released from ACh or BCh. All reactions were performed in 96-well plates in triplicate, and recorded using a microplate spectrophotometer (Molecular Devices, Sunnyvale, CA, USA).

[6] abbreviates: human recombinant BACE1, mean ± SEM of triplicate experiments, read-out: IC50 BACE1.

T2 sequence (P81908 whole entry): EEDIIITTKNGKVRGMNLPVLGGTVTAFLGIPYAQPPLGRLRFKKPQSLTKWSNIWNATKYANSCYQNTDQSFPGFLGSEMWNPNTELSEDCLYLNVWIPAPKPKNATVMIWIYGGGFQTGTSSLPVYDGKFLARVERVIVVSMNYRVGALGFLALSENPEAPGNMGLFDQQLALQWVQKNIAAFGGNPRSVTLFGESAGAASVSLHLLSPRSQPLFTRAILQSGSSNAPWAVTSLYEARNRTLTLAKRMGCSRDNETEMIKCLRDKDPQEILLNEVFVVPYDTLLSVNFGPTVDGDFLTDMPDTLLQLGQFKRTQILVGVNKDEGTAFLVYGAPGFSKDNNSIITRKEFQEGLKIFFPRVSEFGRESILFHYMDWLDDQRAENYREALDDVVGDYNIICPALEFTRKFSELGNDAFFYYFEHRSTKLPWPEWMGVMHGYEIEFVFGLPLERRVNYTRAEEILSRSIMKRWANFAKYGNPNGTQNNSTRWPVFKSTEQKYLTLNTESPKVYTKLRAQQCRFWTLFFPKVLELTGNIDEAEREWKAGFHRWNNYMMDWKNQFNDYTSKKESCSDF
T1 sequence (P56817 46-501): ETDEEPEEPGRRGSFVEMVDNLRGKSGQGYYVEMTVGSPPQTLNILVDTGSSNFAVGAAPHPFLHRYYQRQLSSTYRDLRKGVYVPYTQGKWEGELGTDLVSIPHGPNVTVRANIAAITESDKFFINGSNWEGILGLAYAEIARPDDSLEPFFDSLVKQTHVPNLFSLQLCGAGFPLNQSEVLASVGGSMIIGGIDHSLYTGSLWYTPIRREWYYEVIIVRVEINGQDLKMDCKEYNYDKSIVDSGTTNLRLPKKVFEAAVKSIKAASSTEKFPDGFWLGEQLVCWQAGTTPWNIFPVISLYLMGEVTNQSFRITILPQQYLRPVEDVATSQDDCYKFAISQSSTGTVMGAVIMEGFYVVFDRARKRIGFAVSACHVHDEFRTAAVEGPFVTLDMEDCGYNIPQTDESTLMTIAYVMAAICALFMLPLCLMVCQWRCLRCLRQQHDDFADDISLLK
T3 sequence (O42275 24-633): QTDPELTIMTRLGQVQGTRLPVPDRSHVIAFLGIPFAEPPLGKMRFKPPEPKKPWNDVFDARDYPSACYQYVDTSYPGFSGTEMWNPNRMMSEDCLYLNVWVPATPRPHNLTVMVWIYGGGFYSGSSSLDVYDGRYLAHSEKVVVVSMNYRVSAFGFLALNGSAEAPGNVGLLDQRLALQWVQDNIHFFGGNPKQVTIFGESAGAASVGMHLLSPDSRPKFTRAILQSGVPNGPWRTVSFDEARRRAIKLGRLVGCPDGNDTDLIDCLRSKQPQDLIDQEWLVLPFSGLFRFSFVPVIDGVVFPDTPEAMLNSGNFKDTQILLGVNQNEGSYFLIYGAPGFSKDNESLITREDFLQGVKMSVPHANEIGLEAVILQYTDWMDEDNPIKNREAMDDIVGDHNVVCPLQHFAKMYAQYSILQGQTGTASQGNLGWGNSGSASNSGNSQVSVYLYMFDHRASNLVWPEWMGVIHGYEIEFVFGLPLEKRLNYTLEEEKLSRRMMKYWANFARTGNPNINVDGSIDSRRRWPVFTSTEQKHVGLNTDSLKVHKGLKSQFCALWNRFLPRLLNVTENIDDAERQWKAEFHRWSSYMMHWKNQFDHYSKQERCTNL

For the compound `O=c1ccc2ccc(O)cc2o1` [Compound 1, umbelliferone], in assay [1], the IC50 stood at 169 ± 2.17 µM.

In the case of `O=Cc1cc2ccc(=O)oc2cc1O` [Compound 2, 6-formyl umbelliferone], the BACE1 inhibition type result in assay [2] is recorded as “noncompetitive-type inhibition”. Further, the Ki in assay [2] was found to be 2.27 µM. The IC50 was 27.9 to 87.7 µM and 27.9 µM in assay [3]; 16.7 to 19.1 µM and 16.7 µM in assay [5] (read-out: IC50 AChE); 1.31 ± 0.01 µM in assay [1] (setting [6]). For the same compound, in assay [4], the “Inhibition of ONOO−-mediated tyrosine nitration” value is recorded as “significant dose-dependent inhibition”. Besides, in assay [5], the “SI, selective index (BChE/AChE)” value is recorded as 1.67.

In assay [5] (IC50 AChE), `COc1ccc2cc3[n+](cc2c1OC)CCc1cc2c(cc1-3)OCO2` [Berberine, berberine, reference compound] registered an IC50 of under 0.32 µM.

As for `O=Cc1c(O)ccc2ccc(=O)oc12` [Compound 3, 8-formyl umbelliferone], in assay [2], the BACE1 inhibition type result is on record as “noncompetitive-type inhibition”. Moreover, the Ki in assay [2] was 22.2 µM. For the same compound, the IC50 was 27.9 to 87.7 µM and 87.7 µM in assay [3]; 16.7 to 19.1 µM and 19.1 µM in assay [5] (read-out: IC50 AChE); 39.82 ± 0.31 µM in assay [1] (setting [6]). Also, in assay [5], the “SI, selective index (BChE/AChE)” value is 4.58.
